Source: PMC7179958 (CPT: Pharmacometrics & Systems Pharmacology, 2020)

Key:
[1] = cited from earlier work
[2] = system: human hepatocytes; assay: Uptake of pitavastatin and eltrombopag in cryopreserved human hepatocytes (oil spin method), comeasurement, micro‐rate constant mechanistic model; format: in vitro ADME
Procedure: Human hepatocytes were obtained from BioIVT (Brussels, Belgium; lot number: LYB; 10 donor LiverPool (8 Caucasians, 1 African American, and 1 Hispanic) and thawed according to supplier guidelines in Leibovitz L15 medium. Hepatocytes were kept on ice prior to use and were used within 3 hours of defrosting.
Cells were separated using an oil spin method similar to the literature. ^11 , ^17 After separation, the tubes were frozen on dry ice and the bottom layer was cut off.
A dilution factor of 100 was used to scale from pmol/mL/1 × 10^5 cells to nmol/mL/1 × 10^6 cells.
Passive rate constants for movement into and out of the cell (k f.X and k bX, respectively) as well as uptake transporter‐mediated rate constants for association to the transporter (k aX) and dissociation (k dX) and translocation (k tX) from the transporter into the medium and cell, respectively. […] The sets of ODEs for all the models (models 1–4; Table 1 ) tested for structural identifiability and used for parameter estimation are included in the Supplemental Material .
Parameter estimation was conducted within Monolix 2018 R2 (Lixoft, Antony, France) for each concentration and experiment as an individual data set, where to ensure positivity, a log‐normal distribution was assumed for each parameter, with a proportional residual error model for the observations.
Hepatocyte Incubations. […] Eltrombopag was dissolved in DMSO to give 30 µmol/mL, then diluted 333-fold to 90 nmol/mL in Leibovitz L15 medium. […] Briefly, 0.5 mL microtubes (12049877, Thermo-Fisher Scientific, Gothenburg, Sweden) layered with 15 µL of 4 % cesium chloride onto which 140 µL of 8:2 silicone oil: mineral oil, with oil red O was added. Samples were taken by transferring 100 µL of hepatocyte suspension into the microtube and spun for 15 s in a Minispin centrifuge (Eppendorf, Horsholm, Denmark), during which time the hepatocytes passed through the oil into the cesium chloride bottom layer. The tubes were then frozen on dry ice and the bottom layer cut off once frozen into a 1 mL deep well plate (260252, Thermo-Fisher Scientific, Gothenburg, Sweden).
Sample Extraction. 50 µL of water suitable for UPLC (MilliQ ELGA water, Merck-Millipore, Solna, Sweden) and 150 µL of stop solution (50:50 MeOH:MeCN, containing 0.8 % formic acid and 4 pmol/mL 5,5-diethyl-1,3-diphenyl-2-iminobarbituric acid as internal standard) were added to the frozen samples of the cut-off tube bottoms. Samples were mixed on a plate shaker for 1 h and then stored at – 80 °C overnight. Prior to analysis, samples were defrosted and mixed for 30 min before centrifugation of the plates at 4000 g for 20 min at 4 °C. Samples were transferred to a conical bottomed 96 well plate for analysis (249944, Thermo-Fisher Scientific, Gothenburg, Sweden) and diluted 1:1 with MilliQ ELGA water.
Mechanistic Modeling. […] An estimate for the total amount of transporters (To) can be obtained during the mechanistic modeling process (9, 10), and therefore Tf can be replaced using the conservation law during parameter estimation:
Parameter estimation for all model were conducted within the Monolix suite 2018 R2 (Lixoft, Antony, France) where to ensure positivity, a log-normal distribution was assumed for each parameter in the candidate models, together with a proportional residual error model for the observations.

[3] = model 1, conditional mode (minimum‐maximum) for 1 × 10^6 cells
[4] = model 1 micro‐rate constants, conditional mode (minimum‐maximum) for 1 × 10^6 cells

Q: With `CC1=NN(c2ccc(C)c(C)c2)C(=O)/C1=N\Nc1cccc(-c2cccc(C(=O)O)c2)c1O` [eltrombopag, Eltrombopag] as the compound, how does the “binding of eltrombopag to plasma proteins” value [1] read?
A: 99.8%

Q: And the “f u.pl.E, eltrombopag fraction unbound in the plasma” value [1]?
A: 0.002

Q: What about the “blood:plasma ratio” value ([1]; eltrombopag) of the same compound?
A: 0.78

Q: What about the “effect on transporter‐mediated uptake of pitavastatin” value ([2]; 30 nmol/mL eltrombopag, 15 minute preincubation, overcome at 10–100 nmol/mL pitavastatin) of the same compound?
A: reduced

Q: What about the “F T.X, fraction transported” value ([2]; CLup.X/(CLup.X+Pdif.X), Eq. 4) of the same compound?
A: 0.12 (0.09–0.2)

Q: And the “DV = amount of measured pitavastatin and/or eltrombopag” value (“DV = amount” for short) ([2]; ID 29, pitavastatin AMT 10 nmol at TIME 15, TIME 15.5 min (normalised to post eltrombopag incubation))?
A: 1035.93 nmol

Q: What about the “DV = amount” value ([2]; ID 29, pitavastatin AMT 10 nmol at TIME 15, TIME 16 min) of the same compound?
A: 1126.83 nmol

Q: And the “DV = amount” value ([2]; ID 29, pitavastatin AMT 10 nmol at TIME 15, TIME 17 min)?
A: 1088.94 nmol

Q: And the “DV = amount” value ([2]; ID 29, pitavastatin AMT 10 nmol at TIME 15, TIME 20 min)?
A: 1007.88 nmol

Q: And the “DV = amount” value ([2]; ID 29, pitavastatin AMT 10 nmol at TIME 15, TIME 25 min)?
A: 1166.93 nmol

Q: And the “DV = amount” value ([2]; ID 29, pitavastatin AMT 10 nmol at TIME 15, TIME 45 min)?
A: 1002.58 nmol

Q: And the “DV = amount” value ([2]; ID 30, pitavastatin AMT 10 nmol at TIME 15, TIME 15.25 min)?
A: 729.81 nmol

Q: And the “DV = amount” value ([2]; ID 30, pitavastatin AMT 10 nmol at TIME 15, TIME 15.5 min)?
A: 682.02 nmol

Q: And the “DV = amount” value ([2]; ID 30, pitavastatin AMT 10 nmol at TIME 15, TIME 16 min)?
A: 633.62 nmol

Q: And the “DV = amount” value ([2]; ID 30, pitavastatin AMT 10 nmol at TIME 15, TIME 17 min)?
A: 618.74 nmol

Q: What about the “DV = amount” value ([2]; ID 30, pitavastatin AMT 10 nmol at TIME 15, TIME 20 min) of the same compound?
A: 608.21 nmol

Q: And the “DV = amount” value ([2]; ID 30, pitavastatin AMT 10 nmol at TIME 15, TIME 25 min)?
A: 683.69 nmol

Q: What about the “DV = amount” value ([2]; ID 30, pitavastatin AMT 10 nmol at TIME 15, TIME 45 min) of the same compound?
A: 599.94 nmol

Q: What about the “DV = amount” value ([2]; ID 31, pitavastatin AMT 30 nmol at TIME 15, TIME 15.25 min) of the same compound?
A: 1382.52 nmol

Q: And the “DV = amount” value ([2]; ID 31, pitavastatin AMT 30 nmol at TIME 15, TIME 15.5 min)?
A: 1329.86 nmol

Q: What about the “DV = amount” value ([2]; ID 31, pitavastatin AMT 30 nmol at TIME 15, TIME 16 min) of the same compound?
A: 1156.33 nmol

Q: What about the “DV = amount” value ([2]; ID 31, pitavastatin AMT 30 nmol at TIME 15, TIME 17 min) of the same compound?
A: 1204.59 nmol

Q: What about the “DV = amount” value ([2]; ID 31, pitavastatin AMT 30 nmol at TIME 15, TIME 20 min) of the same compound?
A: 1196.1 nmol

Q: And the “DV = amount” value ([2]; ID 31, pitavastatin AMT 30 nmol at TIME 15, TIME 25 min)?
A: 890.75 nmol

Q: What about the “DV = amount” value ([2]; ID 31, pitavastatin AMT 30 nmol at TIME 15, TIME 45 min) of the same compound?
A: 983.35 nmol

Q: What about the “DV = amount” value ([2]; ID 32, pitavastatin AMT 30 nmol at TIME 15, TIME 15.25 min) of the same compound?
A: 1189.57 nmol

Q: And the “DV = amount” value ([2]; ID 32, pitavastatin AMT 30 nmol at TIME 15, TIME 15.5 min)?
A: 1153.93 nmol

Q: And the “DV = amount” value ([2]; ID 32, pitavastatin AMT 30 nmol at TIME 15, TIME 16 min)?
A: 1218.64 nmol

Q: What about the “DV = amount” value ([2]; ID 32, pitavastatin AMT 30 nmol at TIME 15, TIME 17 min) of the same compound?
A: 1146.32 nmol

Q: And the “DV = amount” value ([2]; ID 32, pitavastatin AMT 30 nmol at TIME 15, TIME 20 min)?
A: 1061.43 nmol

Q: What about the “DV = amount” value ([2]; ID 32, pitavastatin AMT 30 nmol at TIME 15, TIME 25 min) of the same compound?
A: 1010.46 nmol

Q: And the “DV = amount” value ([2]; ID 32, pitavastatin AMT 30 nmol at TIME 15, TIME 45 min)?
A: 1102.17 nmol

Q: And the “DV = amount” value ([2]; ID 33, pitavastatin AMT 30 nmol at TIME 15, TIME 15.25 min)?
A: 668.8 nmol

Q: What about the “DV = amount” value ([2]; ID 33, pitavastatin AMT 30 nmol at TIME 15, TIME 15.5 min) of the same compound?
A: 715.76 nmol

Q: What about the “DV = amount” value ([2]; ID 33, pitavastatin AMT 30 nmol at TIME 15, TIME 16 min) of the same compound?
A: 633.41 nmol

Q: And the “DV = amount” value ([2]; ID 33, pitavastatin AMT 30 nmol at TIME 15, TIME 17 min)?
A: 623.34 nmol

Q: And the “DV = amount” value ([2]; ID 33, pitavastatin AMT 30 nmol at TIME 15, TIME 20 min)?
A: 652.6 nmol

Q: And the “DV = amount” value ([2]; ID 33, pitavastatin AMT 30 nmol at TIME 15, TIME 25 min)?
A: 543.53 nmol

Q: What about the “DV = amount” value ([2]; ID 33, pitavastatin AMT 30 nmol at TIME 15, TIME 45 min) of the same compound?
A: 574.79 nmol

Q: And the “DV = amount” value ([2]; ID 34, pitavastatin AMT 100 nmol at TIME 15, TIME 15.25 min)?
A: 1383.49 nmol

Q: What about the “DV = amount” value ([2]; ID 34, pitavastatin AMT 100 nmol at TIME 15, TIME 15.5 min) of the same compound?
A: 1026.05 nmol

Q: And the “DV = amount” value ([2]; ID 34, pitavastatin AMT 100 nmol at TIME 15, TIME 16 min)?
A: 1256.06 nmol

Q: And the “DV = amount” value ([2]; ID 34, pitavastatin AMT 100 nmol at TIME 15, TIME 17 min)?
A: 1131.42 nmol

Q: And the “DV = amount” value ([2]; ID 34, pitavastatin AMT 100 nmol at TIME 15, TIME 20 min)?
A: 983.13 nmol

Q: And the “DV = amount” value ([2]; ID 34, pitavastatin AMT 100 nmol at TIME 15, TIME 25 min)?
A: 1130.84 nmol

Q: What about the “DV = amount” value ([2]; ID 34, pitavastatin AMT 100 nmol at TIME 15, TIME 45 min) of the same compound?
A: 1000.32 nmol

Q: What about the “DV = amount” value ([2]; ID 36, pitavastatin AMT 100 nmol at TIME 15, TIME 15.25 min) of the same compound?
A: 470.72 nmol

Q: And the “DV = amount” value ([2]; ID 36, pitavastatin AMT 100 nmol at TIME 15, TIME 15.5 min)?
A: 453.1 nmol

Q: And the “DV = amount” value ([2]; ID 36, pitavastatin AMT 100 nmol at TIME 15, TIME 16 min)?
A: 430.66 nmol

Q: And the “DV = amount” value ([2]; ID 36, pitavastatin AMT 100 nmol at TIME 15, TIME 17 min)?
A: 384.81 nmol

Q: And the “DV = amount” value ([2]; ID 36, pitavastatin AMT 100 nmol at TIME 15, TIME 20 min)?
A: 459.69 nmol

Q: And the “DV = amount” value ([2]; ID 36, pitavastatin AMT 100 nmol at TIME 15, TIME 25 min)?
A: 410.46 nmol

Q: And the “DV = amount” value ([2]; ID 36, pitavastatin AMT 100 nmol at TIME 15, TIME 45 min)?
A: 416.81 nmol

Q: And the “transporter‐mediated clearance (V max.up.E.WB/K m.up.E.WB)” value ([2]; eltrombopag, whole body scaled)?
A: 1625 mL/min/liver

Q: And the “K m.up.X or K I.up.X” value ([2]; from micro‐rate constants, Eq. 7)?
A: 3,138 ng/mL

Q: What about the “passive efflux clearance out of the cell” value ([2]; k bX scaled to a clearance) of the same compound?
A: 1.3 (1.05–1.95) µL/min/1 × 10^6 cells

Q: What about the “P dif.X” value ([2]; k fX scaled to a clearance) of the same compound?
A: 52 (40–64) µL/min/1 × 10^6 cells

Q: And the “k bX, passive rate constant out of the cell” value [2, 3]?
A: 0.43 (0.35–0.65) /min

Q: What about the “k fX, passive rate constant into the cell” value [2, 3] of the same compound?
A: 0.05 (0.04–0.06) /min

Q: And the “k aX, transporter association rate constant” value [2, 4]?
A: 0.26 (0.23–0.31) /nmol/min

Q: And the “k dX, transporter dissociation rate constant” value [2, 4]?
A: 1.57 (1.42–2) /min

Q: And the “k tX, transporter translocation rate constant” value [2, 4]?
A: 0.27 (0.24–0.32) /min

Q: And the “V max.up..X, maximum uptake velocity” value ([2]; scaled to whole liver, Eq. 6)?
A: 5.1 × 10^6 ng/min/liver

Q: What about the “P def.X, passive diffusion out of the cell” value ([2]; scaled to whole liver, Eq. 9) of the same compound?
A: 307 mL/min/liver

Q: And the V max.up ([2]; transporter rate constants transformed, Eq. 6)?
A: 49 (28–116) pmol/min/1 × 10^6 cells
